In patent US20040067932A1 (priority 2002, published 2004):
≈ marks a conversion by molar mass, not a printed value. Read-outs that look alike come from different tables or passages of the source.

Assays:
[1] = molecular target: T1, P-gp drug efflux activity in HeL023 cells (Homo sapiens, UniProt P08183); assay: Rhodamine 123 efflux assay, HeL023 cells; type: cell-based; conditions: for inhibition of P-gp activity (in words): Rh123 efflux, concentrations of Table 11 (MRE3008F20 10 μM)
T1 construct: nearly all (100±1%) the cells expressing high level of functional P-gp; endogenous in cells; host or cells: HeL023 human erythroleukemia cells
Method: 5×10^5 cells from each subline were loaded with 50 ng/ml of rhodamine 123 for 30 minutes at 37° C. in medium. The cells were washed and resuspended in dye-staining agent free medium for 3 hours at 37° C. to allow rhodamine 123 efflux. The cells were then washed twice and the fluorescence of intracellular rhodamine 123 were analysed with Flow cytometer (residual fluorescence FRES). The fluorescence was compared with loaded cells maintained at 4° C. to prevent drug export (maximal fluorescence FMAX). […] Cells from each subline that were not being exposed to rhodamine 123 were used as negative controls.
Rhodamine 123 (Rh123) retention, a P-gp functional assay, was studied in all cell lines. This assay was performed by incubating cells with Rh123 and determining Rh123 accumulation by measuring its fluorescence. The maximum load of Rh123 (FMAX) was quantified at the end of treatment harvesting the cells and storing them at 4° C. to prevent any active Rh123 efflux . The P-gp drug efflux was allowed incubating Rh123-loaded cells in fresh new medium Rh123-free for 3 hours at 37° C. After this incubation, residual fluorescence (FRES) was measured and compared to FMAX.

[2] = tested on: human colon carcinoma HT29 cell line; assay: MTT growth inhibitory assay, HT29; type: cell-based; conditions: for IC50: HT-29; for fold HT29 more refractory than A375: ratio of IC50 HT29 vs A375
Method: (§1) One of the growth inhibitory assays is the MTT assay. Cells (1000-1500 cells/well) are seeded in a 96-well micro culture plate in a total volume of 100 μl/well. After overnight incubation in a humidified incubator at 37° C. with 5% CO2-95% air, chemotherapeutic drug solutions diluted with culture medium at various concentrations are added in the amount of 100 μl to each well. The plates are placed in a humidified incubator at 37° C. with 5% CO2-95% air for 7-10 days. The plates are then centrifuged briefly and 100 μl of the growth medium is removed. Cell cultures are incubated with 50 μl of MTT [3-(4,5-dimethylthiazol-2-yl)-2,5-diphenyl-tetrazolium bromide] reagent (1 mg/ml in Dulbecco's phosphate-buffered saline) for 4 hr at 37° C. The resultant purple formazan precipitate is solubilized with 200 μl of 0.04 N HCl in isopropanol. Absorbance is measured at a wavelength of 595 nm and at a reference wavelength of 655 nm using a Bio-Rad Model 3550 Microplate Reader. Preferably, all tests are run in duplicate for each dose level.
(§2) The EZED50 computer program estimates the concentration of agent that inhibits cell growth by 50% as compared to the control cells. This is termed the IC50 and is determined by curve fitting test data using the following four logistic equation. [formula]
(§3) Inhibitory assay testing is also used to determine enhanced therapeutic effects from combining A3 receptor antagonists with other tumor inhibiting agents. The inhibitory cell growth assays are run with and without selected concentrations of A3 receptor antagonists. An enhanced therapeutic effect is present when the IC50 of the tumor inhibiting agent is lower with the A3 receptor antagonist.
(§4) Quantitatively, the enhancement factor (EF) is calculated by dividing the IC50 value of the tumor inhibiting agent for a tumor cell line by the IC50 value of the agent with A3 receptor antagonist for the same cell line: [formula]

[3] = tested on: human pancreatic cancer Panc-1; assay: MTT growth inhibitory assay, Panc-1; type: cell-based
Method: as §1, §2, §3, §4

[4] = tested on: human melanoma A375 cell line; assay: MTT growth inhibitory assay, A375; type: cell-based
[5] = tested on: human lung carcinoma SKMES; assay: MTT growth inhibitory assay, SKMES; type: cell-based
Method: as §1, §2, §3, §4

[6] = 100 mg/m^2; cited from earlier work
[7] = tested on: A375 cells; assay: Flow cytometry (PI) G2/M accumulation and sub-G1 apoptosis, A375; type: cell-based, human; conditions: Homo sapiens, A-375, read-out: SEC50 (dose inducing 50% of the enhancing activity to vindesine)
Method: A375 and NCTC2544 adherent cells were trypsinized, mixed with floating cells, washed with PBS and permeabilised in 70% (vol/vol) ethanol/PBS solution at 4° C. for at least 24 hours. Jurkat, HeL023 and PBMC cells were centrifuged for 10 minutes at 1000×g. The cell pellet was then resuspended and permeabilised in 70% (vol/vol) ethanol/PBS solution at 4° C. for at least 24 hours. The cells were washed with PBS and the DNA was stained with a PBS solution, containing 20 μg/ml of propidium iodide and 100 μg/ml of RNAse, at room temperature for 30 minutes. Cells were analysed by FACScan (Becton-Dickinson) and the content of DNA was evaluated by the Cell-LISYS program (Becton-Dickinson). Cell distribution among cell cycle phases and apoptotic cells was evaluated as previously described (Secchiero et al., 2001). Briefly, the cell cycle distribution is shown as the percentage of cells containing 2n (G1 phase), 4n (G2 and M phases), 4n>x>2n. DNA amount (S phase) judged by propidium iodide staining. The apoptotic population is the percentage of cells with DNA content lower than 2n.
Cell proliferation and apoptosis are quantified by flow cytometer analysis after propidium-iodide (PI) DNA staining.

[8] = molecular target: T2, human A3 adenosine receptor (Homo sapiens, UniProt P0DMS8); assay: biochemical
T2 sequence (P0DMS8 1-318): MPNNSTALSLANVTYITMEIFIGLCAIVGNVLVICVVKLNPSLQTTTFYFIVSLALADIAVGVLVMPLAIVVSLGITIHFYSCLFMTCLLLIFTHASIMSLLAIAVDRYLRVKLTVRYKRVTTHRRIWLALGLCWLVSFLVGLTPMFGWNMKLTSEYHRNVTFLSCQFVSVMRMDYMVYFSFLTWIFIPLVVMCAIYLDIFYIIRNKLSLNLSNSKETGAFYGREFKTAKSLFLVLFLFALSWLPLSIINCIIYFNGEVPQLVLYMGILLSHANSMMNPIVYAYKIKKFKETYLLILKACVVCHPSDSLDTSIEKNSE

[9] = Human Colon Carcinoma HT29, read-out: IC50 growth inhibition, agent used separately
[10] = Human Pancreatic Cancer Panc-1, read-out: IC50 growth inhibition, agent used separately
[11] = Homo sapiens, A-375, Human Melanoma A375, read-out: IC50 growth inhibition, agent used separately
[12] = Human Lung Carcinoma SKMES, read-out: IC50 growth inhibition, agent used separately
[13] = Homo sapiens, HT29 cell line, read-out: IC50 value
[14] = Homo sapiens, A-375, A375 cell line, read-out: IC50 value

T1 sequence (P08183 whole entry): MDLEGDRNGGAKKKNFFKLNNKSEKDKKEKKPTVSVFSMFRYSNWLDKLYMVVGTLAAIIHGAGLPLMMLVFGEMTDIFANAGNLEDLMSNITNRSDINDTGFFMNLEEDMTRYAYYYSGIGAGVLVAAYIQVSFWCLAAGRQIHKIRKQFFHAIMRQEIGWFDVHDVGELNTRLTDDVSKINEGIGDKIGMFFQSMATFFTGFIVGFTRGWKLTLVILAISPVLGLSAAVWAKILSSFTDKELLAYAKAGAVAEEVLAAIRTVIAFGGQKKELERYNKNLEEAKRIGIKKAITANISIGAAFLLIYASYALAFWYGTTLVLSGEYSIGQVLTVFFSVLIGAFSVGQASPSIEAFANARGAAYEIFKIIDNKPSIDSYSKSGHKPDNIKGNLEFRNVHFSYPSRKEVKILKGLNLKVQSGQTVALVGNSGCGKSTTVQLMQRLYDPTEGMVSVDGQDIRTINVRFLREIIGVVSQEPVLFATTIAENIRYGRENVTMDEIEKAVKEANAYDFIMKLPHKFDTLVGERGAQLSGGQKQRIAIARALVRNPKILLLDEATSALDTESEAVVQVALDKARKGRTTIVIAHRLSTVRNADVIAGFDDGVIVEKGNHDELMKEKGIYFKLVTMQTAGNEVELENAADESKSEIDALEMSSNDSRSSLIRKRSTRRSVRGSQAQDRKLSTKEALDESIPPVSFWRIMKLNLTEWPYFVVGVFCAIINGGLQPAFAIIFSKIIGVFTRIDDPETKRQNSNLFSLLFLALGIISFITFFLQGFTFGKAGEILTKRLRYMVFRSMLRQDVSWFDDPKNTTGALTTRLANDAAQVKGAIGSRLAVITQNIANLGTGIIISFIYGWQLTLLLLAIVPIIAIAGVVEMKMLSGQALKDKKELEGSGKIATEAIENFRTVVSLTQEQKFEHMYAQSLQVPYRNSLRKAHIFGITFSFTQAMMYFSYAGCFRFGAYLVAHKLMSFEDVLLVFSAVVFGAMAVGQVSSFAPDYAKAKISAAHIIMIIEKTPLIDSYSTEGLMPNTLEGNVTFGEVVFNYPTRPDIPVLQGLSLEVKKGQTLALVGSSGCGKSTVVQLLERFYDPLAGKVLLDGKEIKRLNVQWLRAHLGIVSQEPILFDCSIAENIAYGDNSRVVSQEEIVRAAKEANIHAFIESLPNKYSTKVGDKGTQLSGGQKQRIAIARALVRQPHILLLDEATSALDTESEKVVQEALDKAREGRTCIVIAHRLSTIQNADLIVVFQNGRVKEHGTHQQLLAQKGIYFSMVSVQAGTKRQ

CCCn1cc2c(nc(NC(=O)Nc3ccccc3)n3nc(-c4ccco4)nc23)n1 [drawing 10]
% of Rh123 negative cells ([1]; 10 μM, cells expressing P-gp activity): 1.0 ± 0.2%

CC[C@]1(O)C[C@@H]2CN(CCc3c([nH]c4ccccc34)[C@@](C(=O)OC)(c3cc4c(cc3OC)N(C)[C@H]3[C@@](O)(C(=O)OC)[C@H](OC(C)=O)[C@]5(CC)C=CCN6CC[C@]43[C@@H]65)C2)C1 [vinblastine, reference compound]
IC50 [2, 9]: 1.9 ± 0.4 ng/mL (≈ 2.34 nM)
IC50 [3, 10]: 1.8 ± 0.8 ng/mL (≈ 2.22 nM)
IC50 [4, 11]: 1.6 ng/mL (≈ 1.97 nM)
IC50 ([5]; Homo sapiens, SKMES, vinblastine 0.00001-0.005 μg/ml, alone, read-out: IC50 of vinblastine, A3 antagonist none): 1.5 ng/mL (≈ 1.85 nM)
IC50 [5, 12]: 1.9 ± 0.9 ng/mL (≈ 2.34 nM)

O=C1c2c(O)ccc(O)c2C(=O)c2c(NCCNCCO)ccc(NCCNCCO)c21 [mitoxantrone, reference compound]
IC50 [2, 13]: 100 ng/mL (≈ 225 nM)
fold HT29 more refractory than A375 [2]: approximately 30 fold
IC50 [4, 14]: 3.2 ng/mL (≈ 7.2 nM)

COc1cccc2c1C(=O)c1c(O)c3c(c(O)c1C2=O)C[C@@](O)(C(=O)CO)C[C@@H]3O[C@H]1C[C@H](N)[C@H](O)[C@H](C)O1 [doxorubicin, reference compound]
IC50 ([2]; Homo sapiens, HT29, doxorubicin 0.0002-0.1 μg/ml, alone, read-out: IC50 of doxorubicin, A3 antagonist none): 460 ng/mL (≈ 846 nM)
IC50 [2, 13]: 211 ng/mL (≈ 388 nM)
fold HT29 more refractory than A375 [2]: approximately 30 fold
IC50 [4, 14]: 6.4 ng/mL (≈ 11.8 nM)

CC(=O)O[C@@]12CO[C@@H]1C[C@H](O)[C@@]1(C)C(=O)[C@H](O)C3=C(C)[C@@H](OC(=O)[C@H](O)[C@@H](NC(=O)OC(C)(C)C)c4ccccc4)C[C@@](O)([C@@H](OC(=O)c4ccccc4)[C@H]21)C3(C)C [docetaxel, reference compound]
IC50 [2, 9]: 0.24 ± 0.05 ng/mL (≈ 0.297 nM)
IC50 ([2]; Homo sapiens, HT29, docetaxel 0.00001-0.005 μg/ml, alone, read-out: IC50 of docetaxel, A3 antagonist none): 0.018 ng/mL (≈ 0.0223 nM)
IC50 ([3]; Homo sapiens, Panc-1, docetaxel 0.00001-0.005 μg/ml, alone, read-out: IC50 of docetaxel, A3 antagonist none): 0.68 ng/mL (≈ 0.842 nM)
IC50 [3, 10]: 0.37 ± 0.31 ng/mL (≈ 0.458 nM)
acute hypersensitivity reaction, % of patients [6]: 13%
severe hypersensitivity reaction, % of patients [6]: 1.2%
IC50 [4, 11]: 0.2 ± 0.07 ng/mL (≈ 0.248 nM)
IC50 ([5]; Homo sapiens, SKMES, docetaxel 0.00001-0.005 μg/ml, alone, read-out: IC50 of docetaxel, A3 antagonist none): 0.47 ng/mL (≈ 0.582 nM)
IC50 [5, 12]: 0.84 ± 0.37 ng/mL (≈ 1.04 nM)

CCCn1cc2c(nc(NC(=O)Nc3ccccc3)n3nc(-c4ccco4)nc23)n1 [MRE 3055F20, 5-N-(4-phenylcarbamoyl)amino-8-propyl-2 (2furyl)-pyrazolo[4,3e]-1,2,4triazolo-[1,5c]pyrimidine]
EC50 [7]: 310 ± 30 nM
inhibition of P-gp activity (in words) [1]: strong inhibitors of P-gp activity
Ki [8]: 1.4 ± 0.2 nM

Cc1ccc(NC(=O)Nc2nc3nn(C)cc3c3nc(-c4ccco4)nn23)cc1 [MRE 3046F20, 5-N-(4-methylphenyl-carbamoyl)amino-8-methyl-2 (2-furyl)-pyrazolo-[4,3e]-1,2,4-triazolo[1,5-c]pyrimidine]
EC50 [7]: 570 ± 60 nM
inhibition of P-gp activity (in words) [1]: strong inhibitors of P-gp activity
Ki [8]: 3 ± 0.3 nM

CN(C)c1ccc(NC(=O)Nc2nc3nn(C)cc3c3nc(-c4ccco4)nn23)cc1 [IL-11, N-1-(4-dimethylamino-phenyl)-N′-5-[8-methyl-2-(2-furyl)-pyrazolo[4,3-e]1,2,4-triazolo[1,5-c]pyrimidine]-urea]
Enhancement Factor for docetaxel ([2]; HT29, A3 antagonist 0.5 μg/ml): 6.4
Enhancement Factor for doxorubicin ([2]; HT29, A3 antagonist 0.5 μg/ml): 1.2
Enhancement Factor for irinotecan HCl ([2]; HT29, A3 antagonist 0.5 μg/ml): 1.1
Enhancement Factor for paclitaxel ([2]; HT29, A3 antagonist 0.5 μg/ml): 2.5
IC50 [2, 9]: 56500 ± 8300 ng/mL (≈ 135000 nM)
IC50 [3, 10]: 8000 ± 5700 ng/mL (≈ 19200 nM)
Enhancement Factor for docetaxel ([3]; Panc-1, A3 antagonist 0.5 μg/ml): 1.4
Enhancement Factor for docetaxel ([4]; A375, A3 antagonist 0.5 μg/ml): 5.3
Enhancement Factor for paclitaxel ([4]; A375, A3 antagonist 0.5 μg/ml): 3.1
Enhancement Factor for docetaxel ([4]; A375, A3 antagonist 5 μg/ml): 6.5
Enhancement Factor for paclitaxel ([4]; A375, A3 antagonist 5 μg/ml, paclitaxel 0.0001-0.05 μg/ml): 9.6
Enhancement Factor for paclitaxel ([4]; A375, A3 antagonist 5 μg/ml, paclitaxel 0.0002-0.1 μg/ml): 11.5
IC50 [4, 11]: 49300 ± 40700 ng/mL (≈ 118000 nM)
inhibition at 5 µg/mL ([4]; Homo sapiens, A-375, A375, 5 μg/ml, read-out: growth inhibition in the presence of A3 antagonist alone): 30 to 45%
IC50 [5, 12]: 36300 ± 31500 ng/mL (≈ 87000 nM)
Enhancement Factor for docetaxel ([5]; SKMES, A3 antagonist 0.5 μg/ml): 1.9
Enhancement Factor for irinotecan HCL ([5]; SKMES, A3 antagonist 0.5 μg/ml): 1.9
Enhancement Factor for paclitaxel ([5]; SKMES, A3 antagonist 0.5 μg/ml): 4.2
Enhancement Factor for vinblastine ([5]; SKMES, A3 antagonist 0.5 μg/ml): 1.6
